In patent publication US10590140B2, “Tetrahydropyrimidodiazepine and dihydropyridodiazepine compounds for treating pain and pain related conditions” (ESTEVE PHARMACEUTICALS, S.A., priority 2016, dated 2020):

What follows are compounds tested against human α2δ-1 subunit of Cav2.2 calcium channel (Homo sapiens (Human), UniProt P54289) (assay: Binding assay to human α2δ-1 subunit of Cav2.2 calcium channel ([3H]-Gabapentin)). Conditions: not given.
In short: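 Radioactivity on dried GF/C filters quantified by scintillation after filtration and three cold Tris-HCl (pH 7.4) washes. Incubation ran 60 min at 27° C with [3H]-gabapentin; 10 μM pregabalin gave nonspecific binding.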

Sequence of human α2δ-1 subunit of Cav2.2 calcium channel (P54289 25-1103): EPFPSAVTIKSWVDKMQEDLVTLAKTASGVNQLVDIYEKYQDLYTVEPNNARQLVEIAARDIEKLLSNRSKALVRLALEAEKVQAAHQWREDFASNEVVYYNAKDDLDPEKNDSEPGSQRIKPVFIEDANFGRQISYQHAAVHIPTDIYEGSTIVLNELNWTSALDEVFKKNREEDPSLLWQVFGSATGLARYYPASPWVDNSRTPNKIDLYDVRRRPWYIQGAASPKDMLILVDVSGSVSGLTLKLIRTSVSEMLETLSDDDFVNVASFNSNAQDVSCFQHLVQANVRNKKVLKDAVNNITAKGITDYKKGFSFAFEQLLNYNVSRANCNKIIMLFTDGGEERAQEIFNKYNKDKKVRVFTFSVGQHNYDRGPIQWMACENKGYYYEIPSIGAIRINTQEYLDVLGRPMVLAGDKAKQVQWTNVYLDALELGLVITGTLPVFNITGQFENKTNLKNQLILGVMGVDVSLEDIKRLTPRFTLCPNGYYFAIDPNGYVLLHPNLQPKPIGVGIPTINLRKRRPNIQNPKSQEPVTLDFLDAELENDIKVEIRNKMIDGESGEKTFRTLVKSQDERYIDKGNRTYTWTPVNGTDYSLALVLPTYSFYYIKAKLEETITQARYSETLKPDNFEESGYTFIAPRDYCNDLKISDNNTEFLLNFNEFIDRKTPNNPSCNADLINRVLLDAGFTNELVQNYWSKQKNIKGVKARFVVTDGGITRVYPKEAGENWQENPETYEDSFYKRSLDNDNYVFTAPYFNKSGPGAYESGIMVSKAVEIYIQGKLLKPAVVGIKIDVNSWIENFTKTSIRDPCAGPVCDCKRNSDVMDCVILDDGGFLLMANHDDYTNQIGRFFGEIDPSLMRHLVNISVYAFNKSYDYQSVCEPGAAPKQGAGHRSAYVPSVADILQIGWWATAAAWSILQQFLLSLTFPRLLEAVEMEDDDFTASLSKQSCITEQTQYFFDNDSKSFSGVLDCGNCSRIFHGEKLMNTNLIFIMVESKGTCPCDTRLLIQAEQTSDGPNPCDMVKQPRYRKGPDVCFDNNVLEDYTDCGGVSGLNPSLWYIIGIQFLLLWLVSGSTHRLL

Row | SMILES | Ki [nM]
1 | CCNc1ncc2c(n1)N(C)CCN(c1cccc(-n3cc(CN4CCC(c5cccc(O)c5)(N(C)C)CC4)nn3)c1)C2=O [Example 293, 6-(3-(4-((4-(dimethylamino)-4-(3-hydroxyphenyl)piperidin-1-yl)methyl)-1H-1,2,3-triazol-1-yl)phenyl)-2-(ethylamino)-9-methyl-6,7,8,9-tetrahydro-5H-pyrimido[4,5-e] [1,4]diazepin-5-one] | 100 to 500

Same assay, conditions: binding to α2δ-1, [3H]-Gabapentin; read-out: Ki (nM) α2δ-1

Row | Ki [nM] | SMILES
2 | 100 to 500 | CCNc1ncc2c(n1)N(C)CCN(c1cccc(CCN(C)Cc3ccccc3)c1)C2=O [Example 269, 6-(3-(2-(benzyl(methyl)amino)ethyl)phenyl)-2-(ethylamino)-9-methyl-6,7,8,9-tetrahydro-5H-pyrimido[4,5-e][1,4]diazepin-5-one]
3 | 100 to 500 | CCNc1ncc2c(n1)N(C)CCN(c1cccc(CCN(C)CCc3ccccc3)c1)C2=O [Example 270, 2-(ethylamino)-9-methyl-6-(3-(2-(methyl(phenethyl)amino)ethyl)phenyl)-6,7,8,9-tetrahydro-5H-pyrimido[4,5-e][1,4]diazepin-5-one]
4 | 500 to 3000 | CCNc1ncc2c(n1)N(C)CCN(c1cccc(-n3cc(CN(C)CCOCCO)nn3)c1)C2=O [Example 273, 2-(ethylamino)-6-(3-(4-(((2-(2-hydroxyethoxy)ethyl) (methyl)amino)methyl)-1H-1,2,3-triazol-1-yl)phenyl)-9-methyl-6,7,8,9-tetrahydro-5H-pyrimido[4,5-e][1,4]diazepin-5-one]
5 | > 3000 | CCNc1ncc2c(n1)N(C)CCN(c1cccc(CCOS(=O)(=O)c3ccc(C)cc3)c1)C2=O [Example 274, 3-(2-(Ethylamino)-9-methyl-5-oxo-5,7,8,9-tetrahydro-6H-pyrimido[4,5-e][1,4]diazepin-6-yl)phenethyl 4-methylbenzenesulfonate]
6 | 100 to 500 | CCNc1ncc2c(n1)N(C)CCN(c1cccc(CCN3CCC4(CC3)CN(C(C)C)C(=O)[C@@H](C)O4)c1)C2=O [Example 276, (R)-9-(3-(2-(ethylamino)-9-methyl-5-oxo-5,7,8,9-tetrahydro-6H-pyrimido[4,5-e][1,4]diazepin-6-yl)phenethyl)-4-isopropyl-2-methyl-1-oxa-4,9-diazaspiro[5.5]undecan-3-one]
7 | 100 to 500 | CCNc1ncc2c(n1)N(C)CCN(c1cccc(-n3cc(CN4CCN(c5ccccc5)CC4)nn3)c1)C2=O [Example 280, 2-(ethylamino)-9-methyl-6-(3-(4-((4-phenylpiperazin-1-yl)methyl)-1H-1,2,3-triazol-1-yl)phenyl)-6,7,8,9-tetrahydro-5H-pyrimido[4,5-e] [1,4]diazepin-5-one]
8 | 500 to 3000 | CCNc1ncc2c(n1)N(C)CCN(c1cccc(-n3cc(CN4CCc5ccccc5C4)nn3)c1)C2=O [Example 282, 6-(3-(4-((3,4-dihydroisoquinolin-2(1H)-yl)methyl)-1H-1,2,3-triazol-1-yl)phenyl)-2-(ethylamino)-9-methyl-6,7,8,9-tetrahydro-5H-pyrimido[4,5-e] [1,4]diazepin-5-one]
9 | 100 to 500 | CCNc1ncc2c(n1)N(C)CCN(c1cccc(-n3cc(CN4CCC5(CC4)NCCc4ccccc45)nn3)c1)C2=O [Example 283, 6-(3-(4-((3,4-dihydro-2H-spiro[isoquinoline-1,4′-piperidin]-1′-yl)methyl)-1H-1,2,3-triazol-1-yl)phenyl)-2-(ethylamino)-9-methyl-6,7,8,9-tetrahydro-5H-pyrimido[4,5-e] [1,4]diazepin-5-one]
10 | 100 to 500 | CCNc1ncc2c(n1)N(C)CCN(c1cccc(-n3cc(CN4CCC5(CC4)CN(C(C)C)C(=O)[C@@H](C)O5)nn3)c1)C2=O [Example 284, (R)-9-((1-(3-(2-(ethylamino)-9-methyl-5-oxo-5,7,8,9-tetrahydro-6H-pyrimido[4,5-e] [1,4]diazepin-6-yl)phenyl)-1H-1,2,3-triazol-4-yl)methyl)-4-isopropyl-2-methyl-1-oxa-4,9-diazaspiro[5.5] undecan-3-one]
11 | 100 to 500 | CCNCc1cn(-c2cccc(N3CCN(C)c4nc(NCC)ncc4C3=O)c2)nn1 [Example 286, 2-(ethylamino)-6-(3-(4-((ethylamino)methyl)-1H-1,2,3-triazol-1-yl)phenyl)-9-methyl-6,7,8,9-tetrahydro-5H-pyrimido[4,5-e] [1,4]diazepin-5-one]
12 | 100 to 500 | CCNc1ncc2c(n1)N(C)CCN(c1cccc(-n3cc(CNCCOCCO)nn3)c1)C2=O [Example 290, 2-(ethylamino)-6-(3-(4-(((2-(2-hydroxyethoxy)ethyl)amino)methyl)-1H-1,2,3-triazol-1-yl)phenyl)-9-methyl-6,7,8,9-tetrahydro-5H-pyrimido[4,5-e] [1,4]diazepin-5-one]
13 | 100 to 500 | CCNc1ncc2c(n1)N(C)CCN(c1cccc(-n3cc(CN4CCC(c5ccccc5)(N(C)C)CC4)nn3)c1)C2=O [Example 291, 6-(3-(4-((4-(dimethylamino)-4-phenylpiperidin-1-yl)methyl)-1H-1,2,3-triazol-1-yl)phenyl)-2-(ethylamino)-9-methyl-6,7,8,9-tetrahydro-5H-pyrimido[4,5-e] [1,4]diazepin-5-one]
14 | 500 to 3000 | CCNc1ncc2c(n1)N(C)CCN(c1cccc(CN3CCC(c4ccccc4)(N(C)C)CC3)c1)C2=O [Example 292, 6-(3-((4-(dimethylamino)-4-phenylpiperidin-1-yl)methyl)phenyl)-2-(ethylamino)-9-methyl-6,7,8,9-tetrahydro-5H-pyrimido[4,5-e] [1,4]diazepin-5-one]
15 | 500 to 3000 | CCNc1ncc2c(n1)N(C)CCN(c1cccc(-n3cc(CN4CCC(c5ccccc5)(N(C)C)CC4)cn3)c1)C2=O [Example 294, 6-(3-(4-((4-(dimethylamino)-4-phenylpiperidin-1-yl)methyl)-1H-pyrazol-1-yl)phenyl)-2-(ethylamino)-9-methyl-6,7,8,9-tetrahydro-5H-pyrimido[4,5-e] [1,4]diazepin-5-one]
16 | 100 to 500 | CCNc1ncc2c(n1)N(C)CCN(c1cccc(-n3cc(CN4CCC(c5cccc(O)c5)(N(C)C)CC4)cn3)c1)C2=O [Example 295, 6-(3-(4-((4-(dimethylamino)-4-(3-hydroxyphenyl)piperidin-1-yl)methyl)-1H-pyrazol-1-yl)phenyl)-2-(ethylamino)-9-methyl-6,7,8,9-tetrahydro-5H-pyrimido[4,5-e] [1,4]diazepin-5-one]

The next lines start with the compound.

Row | SMILES | Ki [nM]
17 | CCNc1ncc2c(n1)N(C)CCN(c1cccc(-c3nnc(CN(C)Cc4ccccc4)o3)c1)C2=O [Example 255, 6-(3-(5-((benzyl(methyl)amino)methyl)-1,3,4-oxadiazol-2-yl)phenyl)-2-(ethylamino)-9-methyl-6,7,8,9-tetrahydro-5H-pyrimido[4,5-e][1,4]diazepin-5-one] | 100 to 500
18 | CCNc1ncc2c(n1)N(C)CCN(c1cccc(OCCCN(C)C)c1)C2=O [Example 257, 6-(3-(3-(dimethylamino)propoxy)phenyl)-2-(ethylamino)-9-methyl-6,7,8,9-tetrahydro-5H-pyrimido[4,5-e][1,4]diazepin-5-one] | 100 to 500
19 | CCNc1ncc2c(n1)N(C)CCN(c1cccc(OCCCN(C)CCc3ccccc3)c1)C2=O [Example 258, 2-(ethylamino)-9-methyl-6-(3-(3-(methyl(phenethyl)amino)propoxy)phenyl)-6,7,8,9-tetrahydro-5H-pyrimido[4,5-e][1,4]diazepin-5-one] | 500 to 3000
20 | CCNc1ncc2c(n1)N(C)CCN(c1cccc(C3CCN(Cc4ccccc4)CC3)c1)C2=O [Example 259, 6-(3-(1-benzylpiperidin-4-yl)phenyl)-2-(ethylamino)-9-methyl-6,7,8,9-tetrahydro-5H-pyrimido[4,5-e][1,4]diazepin-5-one] | 100 to 500
21 | CCNc1ncc2c(n1)N(C)CCN(c1cccc(C3CCN(C)CC3)c1)C2=O [Example 260, 2-(ethylamino)-9-methyl-6-(3-(1-methylpiperidin-4-yl)phenyl)-6,7,8,9-tetrahydro-5H-pyrimido[4,5-e][1,4]diazepin-5-one] | 100 to 500
22 | CCNc1ncc2c(n1)N(C)CCN(c1cccc(OC(C)CN(C)Cc3ccccc3)c1)C2=O (stereo not drawn) [Example 262, 6-(3-((1-(benzyl(methyl)amino)propan-2-yl)oxy)phenyl)-2-(ethylamino)-9-methyl-6,7,8,9-tetrahydro-5H-pyrimido[4,5-e][1,4]diazepin-5-one] | 500 to 3000
23 | CCNc1ncc2c(n1)N(C)CCN(c1cccc(OC(C)CN(C)CCc3ccccc3)c1)C2=O (stereo not drawn) [Example 263, 2-(ethylamino)-9-methyl-6-(3-((1-(methyl(phenethyl)amino)propan-2-yl)oxy)phenyl)-6,7,8,9-tetrahydro-5H-pyrimido[4,5-e][1,4]diazepin-5-one] | 500 to 3000
24 | CCNc1ncc2c(n1)N(C)CCN(c1cccc(OC3CCN(Cc4ccccc4)C3)c1)C2=O (stereo not drawn) [Example 266, 6-(3-((1-benzylpyrrolidin-3-yl)oxy)phenyl)-2-(ethylamino)-9-methyl-6,7,8,9-tetrahydro-5H-pyrimido[4,5-e][1,4]diazepin-5-one] | 100 to 500
25 | CCNc1ncc2c(n1)N(C)CCN(c1cccc(OC(CN(C)Cc3ccccc3)C(C)C)c1)C2=O (stereo not drawn) [Example 267, 6-(3-((1-(benzyl(methyl)amino)-3-methylbutan-2-yl)oxy)phenyl)-2-(ethylamino)-9-methyl-6,7,8,9-tetrahydro-5H-pyrimido[4,5-e][1,4]diazepin-5-one] | 500 to 3000
26 | CCNc1ncc2c(n1)N(C)CCN(c1cccc(OC(CN(C)CCc3ccccc3)C(C)C)c1)C2=O (stereo not drawn) [Example 268, 2-(ethylamino)-9-methyl-6-(3-((3-methyl-1-(methyl(phenethyl)amino)butan-2-yl)oxy)phenyl)-6,7,8,9-tetrahydro-5H-pyrimido[4,5-e][1,4]diazepin-5-one] | 500 to 3000
27 | CCNc1ncc2c(n1)N(C)CCN(c1cccc(COC3(c4ccccc4)CCN(C)CC3)c1)C2=O [Example 272, 2-(ethylamino)-9-methyl-6-(3-(((1-methyl-4-phenylpiperidin-4-yl)oxy)methyl)phenyl)-6,7,8,9-tetrahydro-5H-pyrimido[4,5-e][1,4]diazepin-5-one] | 500 to 3000
